# Experimental data from PubChem BioAssay (NCI).
#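 In this assay, cells in 96-well plates receive the compound at five concentrations for 48 hours. Endpoints are linearly interpolated between the surrounding concentrations. The concentration for 50% growth inhibition is given as GI50. Definition used: TGI = concentration required for complete inhibition of growth.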
# Tests used:
# Assay in all cases: DTP human tumour cell line panel, 48 h
# [1] = tested on: A498 renal
# [2] = tested on: MCF7 breast
# [3] = tested on: MDA-MB-231 breast
# [4] = tested on: HOP-62 NSCLC
# [5] = tested on: SN12C renal
# [6] = tested on: MOLT-4 leukemia
# [7] = tested on: SR leukemia
# [8] = tested on: T-47D breast
# [9] = tested on: MALME-3M melanoma
# [10] = tested on: UO-31 renal
# [11] = tested on: UACC-62 melanoma
# [12] = tested on: IGROV1 ovarian
# [13] = tested on: NCI-H460 lung
# [14] = tested on: K-562 leukemia
# [15] = tested on: HCT-116 colon
# [16] = tested on: OVCAR-3 ovarian
# [17] = tested on: SK-MEL-28 melanoma
# [18] = tested on: CAKI-1 renal
# [19] = tested on: UACC-257 melanoma
# [20] = tested on: M14 melanoma
# [21] = tested on: HCC-2998 colon
# [22] = tested on: SK-MEL-5 melanoma
# [23] = tested on: SNB-75 CNS
# [24] = tested on: HOP-92 NSCLC
# [25] = tested on: SF-295 CNS
# [26] = tested on: HS 578T breast
# [27] = tested on: HL-60(TB) leukemia
# [28] = tested on: RPMI-8226 leukemia
# [29] = tested on: COLO 205 colon
compound,measurement,setting,value
CC1(C)N=C(N)N=C(N)N1c1cccc(CCCCc2ccc(S(=O)(=O)F)cc2Cl)c1,GI50,[1],> 48.2 µM
same,TGI,[1],> 100 µM
same,GI50,[2],0.577 µM
same,TGI,[2],15.7 µM
same,GI50,[3],10.9 µM
same,TGI,[3],43.1 µM
same,GI50,[4],5.72 µM
same,TGI,[4],20.7 µM
same,GI50,[5],0.834 µM
same,TGI,[5],22.5 µM
same,GI50,[6],7.42 µM
same,TGI,[6],> 65.3 µM
same,GI50,[7],0.456 µM
same,TGI,[7],> 49.5 µM
same,GI50,[8],14 µM
same,TGI,[8],34.5 µM
same,GI50,[9],1.12 µM
same,TGI,[9],28.2 µM
same,GI50,[10],14.6 µM
same,TGI,[10],> 100 µM
same,GI50,[11],0.494 µM
same,TGI,[11],17.1 µM
same,GI50,[12],0.313 µM
same,TGI,[12],> 38.5 µM
same,GI50,[13],0.465 µM
same,TGI,[13],> 38.6 µM
same,GI50,[14],3.42 µM
same,TGI,[14],> 100 µM
same,GI50,[15],1.06 µM
same,TGI,[15],> 37.7 µM
same,GI50,[16],5.37 µM
same,TGI,[16],34.1 µM
same,GI50,[17],8.62 µM
same,TGI,[17],22 µM
same,GI50,[18],9.21 µM
same,TGI,[18],> 100 µM
same,GI50,[19],2.15 µM
same,TGI,[19],20.8 µM
same,GI50,[20],7.55 µM
same,TGI,[20],28.1 µM
same,GI50,[21],5.47 µM
same,TGI,[21],38.8 µM
same,GI50,[22],1.87 µM
same,TGI,[22],16.4 µM
same,GI50,[23],2.74 µM
same,TGI,[23],23.9 µM
same,GI50,[24],14 µM
same,TGI,[24],47.8 µM
same,GI50,[25],2.44 µM
same,TGI,[25],> 38.8 µM
same,GI50,[26],43.2 µM
same,TGI,[26],> 100 µM
same,GI50,[27],7.02 µM
same,TGI,[27],55.8 µM
same,GI50,[28],10.8 µM
same,TGI,[28],41.9 µM
same,GI50,[29],5.37 µM
same,TGI,[29],32.9 µM
